Results published in ChEMBL document CHEMBL1268862, “Eucophylline, a Tetracyclic Vinylquinoline Alkaloid from Leuconotis eugenifolius” (J Nat Prod, 2010).

Test: Antiinflammatory activity in mouse J774.1 cells assessed as inhibition of LPS-induced NO production
Type: functional, cell-based

IC50 | SMILES
7.1 µM | C=Cc1c2c(nc3cc(O)c([C@@H]4C[C@@]5(CC)CCCN6CCc7c(n4c4ccccc74)[C@H]65)cc13)N1CCC[C@](CC)(C2)C1 [LEUCOPHYLLIDINE]
22 µg/mL | CNC(=N)NCCC[C@H](N)C(=O)O [TILARGININE]
